Assay results from US20240391882A1 (Mirati Therapeutics, Inc., priority 2023, published 2024).

Key:
Type in all cases: cell-based
[1] = test system: T47D (PI3Kα H1047R mutant) cells; assay: Cell viability (CellTiter-Glo 2.0) in T47D cells; details: Homo sapiens, T47D, 72 h, approximately 72 hours
Procedure, shortened: (§1)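 IC50 values derive from four-parameter fits of CellTiter-Glo luminescence expressed as percent of vehicle control. Cells (T47D or SKBR3) were plated at 1000/well the day before dosing and incubated about 72 h at 37° C with a 10-point, 1:4 series starting at 10 μm.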

[2] = test system: pAKT in T47D (PI3Kα H1047R mutant) cells; assay: Inhibition of pAKT (alphaLISA Surefire Ultra AKT 1/2/3 pS473) in T47D cells; details: Homo sapiens; T47D (PI3Kα H1047R mutant) cells, 24 hr compound incubation, alphaLISA pS473; read-out: T47D (H1047R) pAKT 24 hr (IC50)
Procedure, shortened: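 AlphaLISA read-out of AKT pS473 in lysates after roughly 24 h compound exposure at 37° C in HBSS. Ten concentrations, 1:4 dilutions from a 10.4 μm top dose. Percent of control uses alpelisib at 3.125 μm as background and DMSO as vehicle; four-parameter curve gives IC50.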

[3] = test system: SKBR3 (PI3Kα wild type) cells; assay: Cell viability (CellTiter-Glo 2.0) in SKBR3 cells; details: Homo sapiens, SK-BR-3; SKBR3 (PI3Kα wild type) cells, approximately 72 hours, CellTiter-Glo 2.0; read-out: SKBR3 (WT) Viability IC50
Procedure, shortened: as §1

Compound	IC50 [1]	IC50 [2]	IC50 [3]
COC[C@@H]1CN(c2nc3c([C@@H](C)Nc4ccc(Cl)nc4C(=O)O)cc(C)cc3nc2C#N)CCO1 [Example 236A, 6-chloro-3-(((R)-1-(2-cyano-3-((S)-2-(methoxymethyl)morpholino)-7-methylquinoxalin-5-yl)ethyl)amino)picolinic acid]	0.0528 µM	0.00089 µM	> 10 µM
COC[C@H]1CN(c2nc3c([C@@H](C)Nc4ccc(Cl)nc4C(=O)O)cc(C)cc3nc2C#N)CCO1 [Example 236B, 6-chloro-3-(((R)-1-(2-cyano-3-((R)-2-(methoxymethyl)morpholino)-7-methylquinoxalin-5-yl)ethyl)amino)picolinic acid]	0.217 µM	0.0036 µM	> 10 µM
Cc1cc([C@@H](C)Nc2ccc(Cl)nc2C(=O)O)c2nc(N3C[C@@H](C)OC[C@H]3C)c(C#N)nc2c1 [Example 237A, 6-chloro-3-(((R)-1-(2-cyano-3-((2R,5R)-2,5-dimethylmorpholino)-7-methylquinoxalin-5-yl)ethyl)amino)picolinic acid]	0.137 µM	0.0043 µM	8.17 µM
Cc1cc([C@@H](C)Nc2ccc(Cl)nc2C(=O)O)c2nc(N3C[C@H](C)OC[C@@H]3C)c(C#N)nc2c1 [Example 237B, 6-chloro-3-(((R)-1-(2-cyano-3-((2S,5S)-2,5-dimethylmorpholino)-7-methylquinoxalin-5-yl)ethyl)amino)picolinic acid]	0.152 µM	0.0061 µM	3.8 µM
Cc1cc([C@@H](C)Nc2ccc(Cl)nc2C(=O)O)c2nc(N3C[C@H](C)OC[C@H]3C)c(C#N)nc2c1 [Example 238A, 6-chloro-3-(((R)-1-(2-cyano-3-((2S,5R)-2,5-dimethylmorpholino)-7-methylquinoxalin-5-yl)ethyl)amino)picolinic acid]	0.216 µM	0.0104 µM	> 10 µM
Cc1cc([C@@H](C)Nc2ccc(Cl)nc2C(=O)O)c2nc(N3C[C@@H](C)OC[C@@H]3C)c(C#N)nc2c1 [Example 238B, 6-chloro-3-(((R)-1-(2-cyano-3-((2R,5S)-2,5-dimethylmorpholino)-7-methylquinoxalin-5-yl)ethyl)amino)picolinic acid]	0.117 µM	0.0035 µM	> 10 µM
Cc1cc([C@@H](C)Nc2ccc(Cl)nc2C(=O)O)c2nc(N3CCC4(COC4)C3)c(C#N)nc2c1 [Example 240, (R)-6-chloro-3-((1-(2-cyano-7-methyl-3-(2-oxa-6-azaspiro[3.4]octan-6-yl)quinoxalin-5-yl)ethyl)amino)picolinic acid]	0.016 µM	0.0016 µM	7.99 µM
Cc1cc([C@@H](C)Nc2ccc(Cl)nc2C(=O)O)c2nc(N3CCCOCC3)c(C#N)nc2c1 [Example 242, (R)-6-chloro-3-((1-(2-cyano-7-methyl-3-(1,4-oxazepan-4-yl)quinoxalin-5-yl)ethyl)amino)picolinic acid]	0.035 µM	0.00028 µM	8.26 µM
Cc1cc([C@@H](C)Nc2ccc(Cl)nc2C(=O)O)c2nc(N3C[C@@H](F)[C@@H](C)C3)c(C#N)nc2c1 [Example 245, 6-chloro-3-(((R)-1-(2-cyano-3-((3S,4S)-3-fluoro-4-methylpyrrolidin-1-yl)-7-methylquinoxalin-5-yl)ethyl)amino)picolinic acid]	0.063 µM	0.0011 µM	5.51 µM
Cc1cc([C@@H](C)Nc2ccc(Cl)nc2C(=O)O)c2nc(N3C[C@@H](F)C[C@H]3C)c(C#N)nc2c1 [Example 246A, 6-chloro-3-(((R)-1-(2-cyano-3-((2R,4S)-4-fluoro-2-methylpyrrolidin-1-yl)-7-methylquinoxalin-5-yl)ethyl)amino)picolinic acid]	0.035 µM	0.00069 µM	> 10 µM
Cc1cc([C@@H](C)Nc2ccc(Cl)nc2C(=O)O)c2nc(N3C[C@H](F)C[C@@H]3C)c(C#N)nc2c1 [Example 246B, 6-chloro-3-(((R)-1-(2-cyano-3-((2S,4R)-4-fluoro-2-methylpyrrolidin-1-yl)-7-methylquinoxalin-5-yl)ethyl)amino)picolinic acid]	0.061 µM	0.0018 µM	4.92 µM

Other lines, results leading:

IC50 [1]	IC50 [2]	IC50 [3]	Compound
0.046 µM	0.00097 µM	3.4 µM	Cc1cc([C@@H](C)Nc2ccc(Cl)nc2C(=O)O)c2nc(N3C[C@H](F)C[C@H]3C)c(C#N)nc2c1 [Example 246C, 6-chloro-3-(((R)-1-(2-cyano-3-((2R,4R)-4-fluoro-2-methylpyrrolidin-1-yl)-7-methylquinoxalin-5-yl)ethyl)amino)picolinic acid]
0.158 µM	0.0068 µM	6.22 µM	Cc1cc([C@@H](C)Nc2ccc(Cl)nc2C(=O)O)c2nc(N3C[C@@H](F)C[C@@H]3C)c(C#N)nc2c1 [Example 246D, 6-chloro-3-(((R)-1-(2-cyano-3-((2S,4S)-4-fluoro-2-methylpyrrolidin-1-yl)-7-methylquinoxalin-5-yl)ethyl)amino)picolinic acid]
0.016 µM	0.0017 µM	6.65 µM	Cc1cc([C@@H](C)Nc2ccc(Cl)nc2C(=O)O)c2nc(N3CCC4(CC3)COC4)c(C#N)nc2c1 [Example 249, (R)-6-chloro-3-((1-(2-cyano-7-methyl-3-(2-oxa-7-azaspiro[3.5]nonan-7-yl)quinoxalin-5-yl)ethyl)amino)picolinic acid]
0.037 µM	0.0012 µM	4.89 µM	Cc1cc([C@@H](C)Nc2ccc(Cl)nc2C(=O)O)c2nc(N3CCC4(CCO4)CC3)c(C#N)nc2c1 [Example 250, (R)-6-chloro-3-((1-(2-cyano-7-methyl-3-(1-oxa-7-azaspiro[3.5]nonan-7-yl)quinoxalin-5-yl)ethyl)amino)picolinic acid]
0.011 µM	0.0011 µM	> 10 µM	Cc1cc([C@@H](C)Nc2ccc(Cl)nc2C(=O)O)c2nc(N3CC4(CCOC4)C3)c(C#N)nc2c1 [Example 251, (R)-6-chloro-3-((1-(2-cyano-7-methyl-3-(6-oxa-2-azaspiro[3.4]octan-2-yl)quinoxalin-5-yl)ethyl)amino)picolinic acid]
0.119 µM	0.0027 µM	5.26 µM	Cc1cc([C@@H](C)Nc2ccc(Cl)nc2C(=O)O)c2nc(N3CC4(CCCO4)C3)c(C#N)nc2c1 [Example 252, (R)-6-chloro-3-((1-(2-cyano-7-methyl-3-(5-oxa-2-azaspiro[3.4]octan-2-yl)quinoxalin-5-yl)ethyl)amino)picolinic acidS]
0.17 µM	0.0037 µM	> 10 µM	Cc1cc([C@@H](C)Nc2ccc(Cl)nc2C(=O)O)c2nc(N3CC4(C3)CC(F)(F)C4)c(C#N)nc2c1 [Example 255, (R)-6-chloro-3-((1-(2-cyano-3-(6,6-difluoro-2-azaspiro[3.3]heptan-2-yl)-7-methylquinoxalin-5-yl)ethyl)amino)picolinic acid]
0.31 µM	0.00011 µM	> 10 µM	Cc1cc([C@@H](C)Nc2ccc(Cl)nc2C(=O)O)c2nc(N3CC4(CCC4(F)F)C3)c(C#N)nc2c1 [Example 256, (R)-6-chloro-3-((1-(2-cyano-3-(5,5-difluoro-2-azaspiro[3.3]heptan-2-yl)-7-methylquinoxalin-5-yl)ethyl)amino)picolinic acid]
0.086 µM	0.00299 µM	8.71 µM	Cc1cc([C@@H](C)Nc2ccc(Cl)nc2C(=O)O)c2nc(N3CC4(CC(F)C4)C3)c(C#N)nc2c1 [Example 258, (R)-6-chloro-3-((1-(2-cyano-3-(6-fluoro-2-azaspiro[3.3]heptan-2-yl)-7-methylquinoxalin-5-yl)ethyl)amino)picolinic acid]
0.075 µM	0.0015 µM	> 10 µM	Cc1cc([C@@H](C)Nc2ccc(Cl)nc2C(=O)O)c2nc(N3CC4(CC(O)C4)C3)c(C#N)nc2c1 [Example 259, (R)-6-chloro-3-((1-(2-cyano-3-(6-hydroxy-2-azaspiro[3.3]heptan-2-yl)-7-methylquinoxalin-5-yl)ethyl)amino)picolinic acid]
0.079 µM	0.0032 µM	> 10 µM	Cc1cc([C@@H](C)Nc2ccc(Cl)nc2C(=O)O)c2nc(N3CCC[C@H]([C@H](C)O)C3)c(C#N)nc2c1 [Example 261A, 6-chloro-3-(((R)-1-(2-cyano-3-((S)-3-((S)-1-hydroxyethyl)piperidin-1-yl)-7-methylquinoxalin-5-yl)ethyl)amino)picolinic acid]
0.098 µM	0.0026 µM	> 10 µM	Cc1cc([C@@H](C)Nc2ccc(Cl)nc2C(=O)O)c2nc(N3CCC[C@H]([C@@H](C)O)C3)c(C#N)nc2c1 [Example 261B, 6-chloro-3-(((R)-1-(2-cyano-3-((S)-3-((R)-1-hydroxyethyl)piperidin-1-yl)-7-methylquinoxalin-5-yl)ethyl)amino)picolinic acid]
0.078 µM	0.0021 µM	> 10 µM	Cc1cc([C@@H](C)Nc2ccc(Cl)nc2C(=O)O)c2nc(N3CCC[C@@H]([C@H](C)O)C3)c(C#N)nc2c1 [Example 261C, 6-chloro-3-(((R)-1-(2-cyano-3-((R)-3-((S)-1-hydroxyethyl)piperidin-1-yl)-7-methylquinoxalin-5-yl)ethyl)amino)picolinic acid]
